The supplement of paper PMC11061612

Key:
Assay in all cases: combination Emax (second highest fraction inhibited in the dose matrix, 72 h); higher = more inhibition; extreme values may be limits of the assay
[1] = system: AMO-1 (Plasma Cell Myeloma)
Method in brief: (§1)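 Bliss excess equals the observed combination effect minus the expected value EA + EB − EA·EB, where EA and EB are the effects of each agent alone. Combination Emax is the second-highest inhibition within the matrix. Inhibition was scaled from CellTiter-Glo 2.0 luminescence, with 0 set by vehicle wells and 1 by blank wells, after 72 hours of two-drug dosing of cells plated in 1536-well plates.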

[2] = system: BT-549 (Breast Carcinoma)
Method in brief: as §1

[3] = system: Caov-4 (Ovarian Carcinoma)
Method in brief: as §1

[4] = system: EoL-1-cell (Acute Myeloid Leukemia)
Method in brief: as §1

[5] = system: HGC-27 (Gastric Carcinoma)
Method in brief: as §1

[6] = system: KARPAS-299 (T-Cell Non-Hodgkin's Lymphoma)
Method in brief: as §1

[7] = system: KMOE-2 (Acute Myeloid Leukemia)
Method in brief: as §1

[8] = system: MIA-PaCa-2 (Pancreatic Carcinoma)
Method in brief: as §1

[9] = system: MLMA (Other Blood Carcinomas)
Method in brief: as §1

NB69 (Neuroblastoma) = system: NB69 (Neuroblastoma)
Method in brief: as §1

[10] = system: NCI-H1915 (Non-Small Cell Lung Carcinoma)
Method in brief: as §1

[11] = system: NCI-H727 (Other Solid Carcinomas)
Method in brief: as §1

[12] = system: NUGC-3 (Gastric Carcinoma)
Method in brief: as §1

[13] = system: OVCAR-4 (Ovarian Carcinoma)
Method in brief: as §1

[14] = system: PANC-04-03 (Pancreatic Carcinoma)
Method in brief: as §1

PWR-1E (Non-Cancerous) = system: PWR-1E (Non-Cancerous)
Method in brief: as §1

[15] = system: RF-48 (B-Cell Non-Hodgkin's Lymphoma)
Method in brief: as §1

UACC-62 (Melanoma) = system: UACC-62 (Melanoma)
Method in brief: as §1

[16] = system: VA-ES-BJ (Other Solid Carcinomas)
Method in brief: as §1

YH-13 (Glioblastoma) = system: YH-13 (Glioblastoma)
Method in brief: as §1

Compound	combination Emax [1]	combination Emax [2]	combination Emax [3]	combination Emax [4]	combination Emax [5]	combination Emax [6]	combination Emax [7]	combination Emax [8]	combination Emax [9]	combination Emax (NB69 (Neuroblastoma))	combination Emax [10]	combination Emax [11]	combination Emax [12]	combination Emax [13]	combination Emax [14]	combination Emax (PWR-1E (Non-Cancerous))	combination Emax [15]	combination Emax (UACC-62 (Melanoma))	combination Emax [16]	combination Emax (YH-13 (Glioblastoma))
CN(C)CCCOc1ccc(-c2ccc3ncc4c(c3c2)n(C2CCOCC2)c(=O)n4C)cn1 [AZD0156] + C[C@@H]1COCCN1C2=NC(=NC(=C2)C3(CC3)[S@](=N)(=O)C)C4=C5C=CNC5=NC=C4 [AZD6738] (first compound max 1 µM, 7x7, partner max 10 µM)	0.908	0.46	0.744	0.987	0.862	0.953	0.59	0.605	0.79	0.745	0.522	0.635	0.727	0.697	0.615	0.911	0.588	0.555	0.699	0.578
COc1nnc2ccc(N3CCC(c4ccc(OCCN5CCN(C)C(=O)[C@H]5C)cc4)CC3)nn12 [AZD5153] + C[C@@H]1COCCN1C2=NC(=NC(=C2)C3(CC3)[S@](=N)(=O)C)C4=C5C=CNC5=NC=C4 [AZD6738] (first compound max 1 µM, 7x7, partner max 10 µM)	0.978	0.637	0.894	1	0.859	0.985	0.988	0.919	0.967	0.991	0.546	0.59	0.775	0.711	0.545	0.997	0.629	0.664	0.799	0.663
Cn1cnc2c(F)c(Nc3ccc(Br)cc3Cl)c(C(=O)NOCCO)cc21 [Selumetinib] + C[C@@H]1COCCN1C2=NC(=NC(=C2)C3(CC3)[S@](=N)(=O)C)C4=C5C=CNC5=NC=C4 [AZD6738] (first compound max 10 µM, 7x7, partner max 10 µM)	0.885	0.464	0.76	1	0.734	0.929	1	0.686	0.596	0.999	0.701	0.652	0.666	0.532	0.516	0.935	0.371	0.803	0.714	0.51
NC1(C(=O)N[C@@H](CCO)c2ccc(Cl)cc2)CCN(c2ncnc3[nH]ccc23)CC1 [Capivasertib] + CCN(CCO)CCCOc1ccc2c(Nc3cc(CC(=O)Nc4cccc(F)c4)[nH]n3)ncnc2c1 [AZD2811] (first compound max 10 µM, 7x7, partner max 1 µM)	0.769	0.435	0.383	1	0.939	0.337	0.489	0.418	0.461	0.679	0.334	0.418	0.448	0.323	0.305	0.713	0.534	0.556	0.49	0.627
CC(=O)Nc1cccc(-n2c(=O)n(C3CC3)c(=O)c3c(Nc4ccc(I)cc4F)n(C)c(=O)c(C)c32)c1 [Trametinib] + Cc1nc(-c2cn3c(n2)-c2ccc(-c4cnn(C(C)(C)C(N)=O)c4)cc2OCC3)n(C(C)C)n1 [Taselisib] (first compound max 1 µM, 7x7, partner max 10 µM)	0.812	0.497	0.76	1	0.924	0.639	1	0.887	0.661	1	1	0.988	0.865	0.518	0.89	0.864	0.345	0.996	0.687	0.916
CC1(C)CCC(CN2CCN(c3ccc(C(=O)NS(=O)(=O)c4ccc(NCC5CCOCC5)c([N+](=O)[O-])c4)c(Oc4cnc5[nH]ccc5c4)c3)CC2)=C(c2ccc(Cl)cc2)C1 [Venetoclax] + CN(C)CCCOc1ccc(-c2ccc3ncc4c(c3c2)n(C2CCOCC2)c(=O)n4C)cn1 [AZD0156] (first compound max 1 µM, 7x7, partner max 1 µM)	0.814	0.179	0.226	0.986	0.362	0.807	0.207	0.375	0.93	0.329	0.285	0.317	0.276	0.173	0.18	0.217	0.212	0.487	0.227	0.198
